Measurements: article PMC10579715 (Plant Biotechnology Journal, 2023)

System: LmUGT73P1
Test: LC-QTOF-MS/MS rhamnosyltransferase assay, Michaelis-Menten plot
Type: biochemical, Lonicera macranthoides
Settings: 10 mM UDP-Rha, 50 mM Tris-HCl pH 7.5, 37 °C, 20 min

SMILES: CC1(C)CC[C@]2(C(=O)O)CC[C@]3(C)C(=CC[C@@H]4[C@@]5(C)CC[C@H](O[C@@H]6OC[C@H](O)[C@H](O)[C@H]6O)[C@@](C)(CO)[C@@H]5CC[C@]43C)[C@@H]2C1 [cauloside A]
- Km: 33 µM
